This passage reports MIC results from ChEMBL document CHEMBL1138820, “Synthesis and QSAR studies of pyrimido[4,5-d]pyrimidine-2,5-dione derivatives as potential antimicrobial agents” (2004).

Format in all cases: functional
For one assay, the system named is Aspergillus niger. Nature of the assay: Minimum inhibitory concentration required for antifungal activity against Aspergillus niger ATCC 16404.
A further assay relates to Candida albicans. Kind of assay: Minimum inhibitory concentration required for antifungal activity against Candida albicans ATCC 10321.
The test system of a further assay is Bacillus subtilis. Kind of assay: Minimum inhibitory concentration required for antibacterial activity against Bacillus subtilis ATCC 6633; gram positive.
The test system of another assay is Escherichia coli. Nature of the assay: Minimum inhibitory concentration required for antibacterial activity against Escherichia coli ATCC 13607; gram negative.
The nature of assay [1]: Minimum inhibitory concentration required for antibacterial activity against Pseudomonas diminuta MTCC 3361; gram negative. Conditions: Brevundimonas diminuta.
A further assay has as its system Staphylococcus aureus. Kind of assay: Minimum inhibitory concentration required for antibacterial activity against Staphylococcus aureus ATCC 2943; gram positive.

Converted amounts (≈) assume the structure as drawn.

`Clc1ccccc1C(c1ccccc1)(c1ccccc1)n1ccnc1` [CLOTRIMAZOLE]: the MIC was found to be 20 µg/mL (≈ 58 µM) in the assay on Aspergillus niger and 25 µg/mL (≈ 72.5 µM) in the assay with Candida albicans.

Regarding `O=C1Nc2[nH]c(=S)n(-c3ccc([N+](=O)[O-])cc3)c(=O)c2C(c2ccccc2Cl)N1/N=N/c1ccc(Cl)cc1` (configuration not stated), the MIC in the assay on Aspergillus niger amounted to 19 µg/mL (≈ 33.4 µM); in the assay on Bacillus subtilis, 6 µg/mL (≈ 10.6 µM); in the assay with Escherichia coli it was 7 µg/mL (≈ 12.3 µM); in assay [1], 9 µg/mL (≈ 15.8 µM); in the assay on Staphylococcus aureus, 4 µg/mL (≈ 7.04 µM); with Candida albicans, 15 µg/mL (≈ 26.4 µM).

As for `Cc1ccc(-n2c(=S)[nH]c3c(c2=O)C(c2ccccc2Cl)N(/N=N/c2ccc(Cl)cc2)C(=O)N3)cc1` (configuration not stated), the MIC in the assay with Aspergillus niger came to 42 µg/mL (≈ 78.1 µM); in the assay with Bacillus subtilis, 22 µg/mL (≈ 40.9 µM); with Escherichia coli, 26 µg/mL (≈ 48.4 µM); in assay [1], 31 µg/mL (≈ 57.7 µM); against Staphylococcus aureus, 21 µg/mL (≈ 39.1 µM); against Candida albicans, 39 µg/mL (≈ 72.6 µM).

`O=C(O)c1ccc(-n2c(=S)[nH]c3c(c2=O)C(c2ccccc2Cl)N(/N=N/c2ccc(Cl)cc2)C(=O)N3)cc1` (configuration not stated): the MIC was determined as 22 µg/mL (≈ 38.8 µM) with Aspergillus niger; 7 µg/mL (≈ 12.3 µM) in the assay with Bacillus subtilis; 8 µg/mL (≈ 14.1 µM) in the assay on Escherichia coli; 11 µg/mL (≈ 19.4 µM) in assay [1]; 5 µg/mL (≈ 8.81 µM) with Staphylococcus aureus; 17 µg/mL (≈ 30 µM) against Candida albicans.

For the compound `COc1ccc(-n2c(=S)[nH]c3c(c2=O)C(c2ccccc2Cl)N(/N=N/c2ccc(Cl)cc2)C(=O)N3)cc1` (configuration not stated), the minimum inhibitory concentration (MIC) against Aspergillus niger was found to be 33 µg/mL (≈ 59.6 µM); with Bacillus subtilis, 16 µg/mL (≈ 28.9 µM); against Escherichia coli, 17 µg/mL (≈ 30.7 µM); in assay [1], 21 µg/mL (≈ 37.9 µM); in the assay with Staphylococcus aureus, 11 µg/mL (≈ 19.9 µM); against Candida albicans, 29 µg/mL (≈ 52.4 µM).

For the compound `O=C1Nc2[nH]c(=S)n(-c3ccc(Cl)cc3)c(=O)c2C(c2ccccc2Cl)N1/N=N/c1ccc(Cl)cc1` (configuration not stated), the MIC against Aspergillus niger came out at 29 µg/mL (≈ 52 µM); in the assay with Bacillus subtilis it was 12 µg/mL (≈ 21.5 µM); against Escherichia coli, 13 µg/mL (≈ 23.3 µM); in assay [1], 14 µg/mL (≈ 25.1 µM); against Staphylococcus aureus, 9 µg/mL (≈ 16.1 µM); in the assay with Candida albicans it was 24 µg/mL (≈ 43 µM).

Regarding `CC1(C)S[C@@H]2[C@H](NC(=O)[C@H](N)c3ccccc3)C(=O)N2[C@H]1C(=O)O` [AMPICILLIN], the minimal inhibitory concentration (MIC) was found to be 10 µg/mL (≈ 28.6 µM) against Bacillus subtilis, 49 µg/mL (≈ 140 µM) against Escherichia coli, 15 µg/mL (≈ 42.9 µM) in assay [1] and 50 µg/mL (≈ 143 µM) with Staphylococcus aureus.

For the compound `O=C1Nc2[nH]c(=S)n(-c3cccc([N+](=O)[O-])c3)c(=O)c2C(c2ccccc2Cl)N1/N=N/c1ccc(Cl)cc1` (configuration not stated), the MIC was 16 µg/mL (≈ 28.1 µM) in the assay on Aspergillus niger; 5 µg/mL (≈ 8.8 µM) in the assay on Bacillus subtilis; 6 µg/mL (≈ 10.6 µM) in the assay on Escherichia coli; 8 µg/mL (≈ 14.1 µM) in assay [1]; 3 µg/mL (≈ 5.28 µM) against Staphylococcus aureus; 13 µg/mL (≈ 22.9 µM) with Candida albicans.

`O=C1Nc2[nH]c(=S)n(-c3ccccc3)c(=O)c2C(c2ccccc2Cl)N1/N=N/c1ccc(Cl)cc1` (configuration not stated): the minimal inhibitory concentration (MIC) against Aspergillus niger stood at 57 µg/mL (≈ 109 µM); against Bacillus subtilis, 37 µg/mL (≈ 70.7 µM); in the assay with Escherichia coli it was 40 µg/mL (≈ 76.4 µM); in assay [1], 46 µg/mL (≈ 87.9 µM); against Staphylococcus aureus it was 32 µg/mL (≈ 61.1 µM); against Candida albicans it was 52 µg/mL (≈ 99.3 µM).

Turning to `O=C1Nc2[nH]c(=S)n(-c3cccc(Cl)c3)c(=O)c2C(c2ccccc2Cl)N1/N=N/c1ccc(Cl)cc1` (configuration not stated), the MIC was determined as 14 µg/mL (≈ 25.1 µM) against Aspergillus niger; 4 µg/mL (≈ 7.17 µM) in the assay on Bacillus subtilis; 4 µg/mL (≈ 7.17 µM) with Escherichia coli; 5 µg/mL (≈ 8.96 µM) in assay [1]; 2 µg/mL (≈ 3.59 µM) in the assay with Staphylococcus aureus; 11 µg/mL (≈ 19.7 µM) with Candida albicans.

For the compound `Cc1cccc(-n2c(=S)[nH]c3c(c2=O)C(c2ccccc2Cl)N(/N=N/c2ccc(Cl)cc2)C(=O)N3)c1` (configuration not stated), the minimal inhibitory concentration (MIC) against Aspergillus niger was 39 µg/mL (≈ 72.6 µM); in the assay with Bacillus subtilis, 21 µg/mL (≈ 39.1 µM); against Escherichia coli, 22 µg/mL (≈ 40.9 µM); in assay [1], 25 µg/mL (≈ 46.5 µM); with Staphylococcus aureus, 18 µg/mL (≈ 33.5 µM); in the assay on Candida albicans it was 35 µg/mL (≈ 65.1 µM).

Consider `O=C1Nc2[nH]c(=S)n(-c3cccc(O)c3)c(=O)c2C(c2ccccc2Cl)N1/N=N/c1ccc(Cl)cc1` (configuration not stated), for which the minimal inhibitory concentration (MIC) against Aspergillus niger stood at 24 µg/mL (≈ 44.5 µM); against Bacillus subtilis, 8 µg/mL (≈ 14.8 µM); against Escherichia coli it was 10 µg/mL (≈ 18.5 µM); in assay [1], 13 µg/mL (≈ 24.1 µM); in the assay with Staphylococcus aureus it was 6 µg/mL (≈ 11.1 µM); against Candida albicans it was 20 µg/mL (≈ 37.1 µM).

For the compound `O=C1Nc2[nH]c(=S)n(-c3ccc(O)cc3)c(=O)c2C(c2ccccc2Cl)N1/N=N/c1ccc(Cl)cc1` (configuration not stated), the minimal inhibitory concentration (MIC) in the assay with Aspergillus niger stood at 27 µg/mL (≈ 50.1 µM); against Bacillus subtilis, 10 µg/mL (≈ 18.5 µM); with Escherichia coli, 12 µg/mL (≈ 22.2 µM); in assay [1], 15 µg/mL (≈ 27.8 µM); in the assay with Staphylococcus aureus, 8 µg/mL (≈ 14.8 µM); with Candida albicans, 23 µg/mL (≈ 42.6 µM).
